Reference: patent US20260130395A1, “Water Dispersible Botanical Compositions” (Aquila Black Limited, priority 2021, published 2026)

Assay: Stability of cannabinoid compounds and Vitamin E components in Beverage 2 (AB Red) by LCMSMS
Type: physicochemical

SMILES: C=C(C)[C@@H]1CCC(C)=C[C@H]1c1c(O)cc(CCC)cc1O [CBDV, cannabidivarin]
- Stability of Plant-Derived Cannabinoid Compounds in AB Red (stored at 8° C., 0 days): 0.200 µg/mL
- Stability of Plant-Derived Cannabinoid Compounds in AB Red (stored at 8° C., 1 days): 0.194 µg/mL
- Stability of Plant-Derived Cannabinoid Compounds in AB Red (stored at 8° C., 2 days): 0.197 µg/mL
- Stability of Plant-Derived Cannabinoid Compounds in AB Red (stored at 8° C., 3 days): 0.199 µg/mL
- Stability of Plant-Derived Cannabinoid Compounds in AB Red (stored at 8° C., 5 days): 0.198 µg/mL
- Stability of Plant-Derived Cannabinoid Compounds in AB Red (stored at 8° C., 8 days): 0.198 µg/mL
- Stability of Plant-Derived Cannabinoid Compounds in AB Red (stored at 8° C., 9 days): 0.201 µg/mL
- Stability of Plant-Derived Cannabinoid Compounds in AB Red (stored at 8° C., 10 days): 0.194 µg/mL
- Stability of Plant-Derived Cannabinoid Compounds in AB Red (stored at 8° C., 11 days): 0.195 µg/mL
- Stability of Plant-Derived Cannabinoid Compounds in AB Red (stored at 8° C., 12 days): 0.198 µg/mL
- Stability of Plant-Derived Cannabinoid Compounds in AB Red (stored at 8° C., 15 days): 0.194 µg/mL
- Stability of Plant-Derived Cannabinoid Compounds in AB Red (stored at 8° C., 16 days): 0.195 µg/mL
- Stability of Plant-Derived Cannabinoid Compounds in AB Red (stored at 8° C., 17 days): 0.195 µg/mL
- Stability of Plant-Derived Cannabinoid Compounds in AB Red (stored at 8° C., 18 days): 0.195 µg/mL
- Stability of Plant-Derived Cannabinoid Compounds in AB Red (stored at 8° C., 19 days): 0.199 µg/mL
- Stability of Plant-Derived Cannabinoid Compounds in AB Red (stored at 8° C., 22 days): 0.200 µg/mL
- Stability of Plant-Derived Cannabinoid Compounds in AB Red (stored at 8° C., 23 days): 0.194 µg/mL
- Stability of Plant-Derived Cannabinoid Compounds in AB Red (stored at 8° C., 24 days): 0.197 µg/mL
- Stability of Plant-Derived Cannabinoid Compounds in AB Red (stored at 8° C., 25 days): 0.199 µg/mL
- Stability of Plant-Derived Cannabinoid Compounds in AB Red (stored at 8° C., 26 days): 0.199 µg/mL
- Stability of Plant-Derived Cannabinoid Compounds in AB Red (stored at 8° C., 29 days): 0.197 µg/mL
- Stability of Plant-Derived Cannabinoid Compounds in AB Red (stored at 8° C., 30 days): 0.200 µg/mL
- Stability of Plant-Derived Cannabinoid Compounds in AB Red (stored at 8° C., 60 days): 0.199 µg/mL
- Stability of Plant-Derived Cannabinoid Compounds in AB Red (stored at 8° C., 90 days): 0.196 µg/mL
- Stability of Plant-Derived Cannabinoid Compounds in AB Red (stored at 8° C., 120 days): 0.193 µg/mL
- Stability of Plant-Derived Cannabinoid Compounds in AB Red (stored at 8° C., 150 days): 0.198 µg/mL
- Stability of Plant-Derived Cannabinoid Compounds in AB Red (stored at 8° C., 180 days): 0.192 µg/mL
- Stability of Plant-Derived Cannabinoid Compounds in AB Red (stored at 8° C., 210 days): 0.193 µg/mL
- Stability of Plant-Derived Cannabinoid Compounds in AB Red (stored at 8° C., 240 days): 0.192 µg/mL
- Stability of Plant-Derived Cannabinoid Compounds in AB Red (stored at 8° C., 270 days): 0.195 µg/mL
- Stability of Plant-Derived Cannabinoid Compounds in AB Red (stored at 8° C., 300 days): 0.193 µg/mL
- Stability of Plant-Derived Cannabinoid Compounds in AB Red (stored at 8° C., 330 days): 0.191 µg/mL
- Stability of Plant-Derived Cannabinoid Compounds in AB Red (stored at 8° C., 360 days): 0.193 µg/mL
- Stability of Plant-Derived Cannabinoid Compounds in AB Red (stored at 8° C., 390 days): 0.194 µg/mL
- Stability of Plant-Derived Cannabinoid Compounds in AB Red (stored at 8° C., 420 days): 0.193 µg/mL
- Stability of Plant-Derived Cannabinoid Compounds in AB Red (stored at 8° C., 450 days): 0.195 µg/mL
- Stability of Plant-Derived Cannabinoid Compounds in AB Red (stored at 8° C., 480 days): 0.190 µg/mL
- Stability of Plant-Derived Cannabinoid Compounds in AB Red (stored at 8° C., 510 days): 0.184 µg/mL
- Stability of Plant-Derived Cannabinoid Compounds in AB Red (stored at 8° C., 540 days): 0.185 µg/mL
- Stability of Plant-Derived Cannabinoid Compounds in AB Red (stored at 8° C., 570 days): 0.183 µg/mL
- Stability of Plant-Derived Cannabinoid Compounds in AB Red (stored at 21-25° C., 0 days): 0.20 µg/mL
- Stability of Plant-Derived Cannabinoid Compounds in AB Red (stored at 21-25° C., 1 days): 0.20 µg/mL
- Stability of Plant-Derived Cannabinoid Compounds in AB Red (stored at 21-25° C., 2 days): 0.20 µg/mL
- Stability of Plant-Derived Cannabinoid Compounds in AB Red (stored at 21-25° C., 3 days): 0.20 µg/mL
- Stability of Plant-Derived Cannabinoid Compounds in AB Red (stored at 21-25° C., 5 days): 0.19 µg/mL
- Stability of Plant-Derived Cannabinoid Compounds in AB Red (stored at 21-25° C., 8 days): 0.20 µg/mL
- Stability of Plant-Derived Cannabinoid Compounds in AB Red (stored at 21-25° C., 9 days): 0.20 µg/mL
- Stability of Plant-Derived Cannabinoid Compounds in AB Red (stored at 21-25° C., 10 days): 0.20 µg/mL
- Stability of Plant-Derived Cannabinoid Compounds in AB Red (stored at 21-25° C., 11 days): 0.20 µg/mL
- Stability of Plant-Derived Cannabinoid Compounds in AB Red (stored at 21-25° C., 12 days): 0.20 µg/mL
- Stability of Plant-Derived Cannabinoid Compounds in AB Red (stored at 21-25° C., 15 days): 0.20 µg/mL
- Stability of Plant-Derived Cannabinoid Compounds in AB Red (stored at 21-25° C., 16 days): 0.19 µg/mL
- Stability of Plant-Derived Cannabinoid Compounds in AB Red (stored at 21-25° C., 17 days): 0.20 µg/mL
- Stability of Plant-Derived Cannabinoid Compounds in AB Red (stored at 21-25° C., 18 days): 0.20 µg/mL
- Stability of Plant-Derived Cannabinoid Compounds in AB Red (stored at 21-25° C., 19 days): 0.19 µg/mL
- Stability of Plant-Derived Cannabinoid Compounds in AB Red (stored at 21-25° C., 22 days): 0.20 µg/mL
- Stability of Plant-Derived Cannabinoid Compounds in AB Red (stored at 21-25° C., 23 days): 0.19 µg/mL
- Stability of Plant-Derived Cannabinoid Compounds in AB Red (stored at 21-25° C., 24 days): 0.19 µg/mL
- Stability of Plant-Derived Cannabinoid Compounds in AB Red (stored at 21-25° C., 25 days): 0.19 µg/mL
- Stability of Plant-Derived Cannabinoid Compounds in AB Red (stored at 21-25° C., 26 days): 0.19 µg/mL
- Stability of Plant-Derived Cannabinoid Compounds in AB Red (stored at 21-25° C., 29 days): 0.19 µg/mL
- Stability of Plant-Derived Cannabinoid Compounds in AB Red (stored at 21-25° C., 30 days): 0.20 µg/mL
- Stability of Plant-Derived Cannabinoid Compounds in AB Red (stored at 21-25° C., 60 days): 0.20 µg/mL
- Stability of Plant-Derived Cannabinoid Compounds in AB Red (stored at 21-25° C., 90 days): 0.19 µg/mL
- Stability of Plant-Derived Cannabinoid Compounds in AB Red (stored at 21-25° C., 120 days): 0.19 µg/mL
- Stability of Plant-Derived Cannabinoid Compounds in AB Red (stored at 21-25° C., 150 days): 0.20 µg/mL
- Stability of Plant-Derived Cannabinoid Compounds in AB Red (stored at 21-25° C., 180 days): 0.20 µg/mL
- Stability of Plant-Derived Cannabinoid Compounds in AB Red (stored at 21-25° C., 210 days): 0.19 µg/mL
- Stability of Plant-Derived Cannabinoid Compounds in AB Red (stored at 21-25° C., 240 days): 0.20 µg/mL
- Stability of Plant-Derived Cannabinoid Compounds in AB Red (stored at 21-25° C., 270 days): 0.20 µg/mL
- Stability of Plant-Derived Cannabinoid Compounds in AB Red (stored at 21-25° C., 300 days): 0.19 µg/mL
- Stability of Plant-Derived Cannabinoid Compounds in AB Red (stored at 21-25° C., 330 days): 0.19 µg/mL
- Stability of Plant-Derived Cannabinoid Compounds in AB Red (stored at 21-25° C., 360 days): 0.19 µg/mL
- Stability of Plant-Derived Cannabinoid Compounds in AB Red (stored at 21-25° C., 390 days): 0.19 µg/mL
- Stability of Plant-Derived Cannabinoid Compounds in AB Red (stored at 21-25° C., 420 days): 0.19 µg/mL
- Stability of Plant-Derived Cannabinoid Compounds in AB Red (stored at 21-25° C., 450 days): 0.19 µg/mL
- Stability of Plant-Derived Cannabinoid Compounds in AB Red (stored at 21-25° C., 480 days): 0.19 µg/mL
- Stability of Plant-Derived Cannabinoid Compounds in AB Red (stored at 21-25° C., 510 days): 0.19 µg/mL
- Stability of Plant-Derived Cannabinoid Compounds in AB Red (stored at 21-25° C., 540 days): 0.19 µg/mL
- Stability of Plant-Derived Cannabinoid Compounds in AB Red (stored at 21-25° C., 570 days): 0.18 µg/mL
